Measurements published in US5665760A, “Lyophilized thioxanthenone antitumor agents” (priority 1995, dated 1997).

Columns and labels:
Assay type in all cases: in vivo
[1] = system: Colon 51/A; assay: antitumor activity in mice against Colon 51/A; conditions: i.v. bolus days 3-6, 9, 11
Method: (§1) Representative examples of the invention were tested for antitumor activity in mice according to the following procedure:
(§2) The animals were pooled, implanted subcutaneously with 30 to 60 mg tumor fragments by 12-gauge trocar, and again pooled before unselective distribution to the various treatment and control groups. For early-stage treatment, chemotherapy was started within 1 to 5 days after tumor implantation while the number of cells was relatively small (10^7 to 10^8 cells). For advanced-stage treatment, chemotherapy was delayed until the tumor became relatively large (200 to 300 mg in size). A 300-mg tumor contains approximately 3×10^8 total cells. […] Tumors were measured with a caliper weekly (or twice weekly for the more rapidly growing tumors). Mice were sacrificed when their tumors reached 1500 mg (i.e., before they can cause the animal discomfort). Tumor weights were estimated from two-dimensional measurements.
(§3) The treatment and control groups were measured when the control group tumors reached approximately 700 to 1200 mg in size (Median of Group). The median tumor weight of each group was determined (including zeros). […] A T/C value <10% is considered to indicate highly significant antitumor activity.

[2] = system: pancreatic ductal adenocarcinoma #03; assay: antitumor activity in mice against pancreatic ductal adenocarcinoma #03 (Panc 03); conditions: for Weight Loss: average body weight 25 g
Method: as §1, §2, §3
(§4) The results are shown in Table I for pancreatic ductal adenocarcinoma #03 and in Table 2 for colon adenocarcinoma #38.

[3] = system: Panc 02; assay: antitumor activity in mice against Panc 02; conditions: i.v. bolus days 1-4; for Tumor Free: 28 days of observation
Method: as §1
(§5) The animals were pooled, implanted subcutaneously with 30 to 60 mg tumor fragments by 12-gauge trocar, and again pooled before unselective distribution to the various treatment and control groups. For early-stage treatment, chemotherapy was started within 1 to 5 days after tumor implantation while the number of cells was relatively small (10^7 to 10^8 cells). For advanced-stage treatment, chemotherapy was delayed until the tumor became relatively large (200 to 300 mg in size). A 300-mg tumor contains approximately 3×10^8 total cells. Tumors within a given advanced-stage trial were within a 2.5-fold size range for 90% of the animals. Tumors were measured with a caliper weekly (or twice weekly for the more rapidly growing tumors). Mice were sacrificed when their tumors reached 1500 mg (i.e., before they can cause the animal discomfort). Tumor weights were estimated from two-dimensional measurements.
(§6) The treatment and control groups were measured when the control group tumors reached approximately 700 to 1200 mg in size (Median of Group). The median tumor weight of each group was determined (including zeros). The T/C value (weight of treated tumors over the weight of control tumors) in percent is an indication of antitumor effectiveness: A T/C equal to or less than 42% is considered significant antitumor activity by the Drug Evaluation Branch of the Division of Cancer Treatment (NCl). A T/C value <10% is considered to indicate highly significant antitumor activity. A body weight loss nadir (mean of group) of greater than 20% or greater than 20% drug-deaths is considered to indicate an excessively toxic dosage.

[4] = system: Mammary 16/C; assay: antitumor activity in mice against Mammary 16/C
Method: as §1, §2, §3

[5] = system: colon adenocarcinoma #38; assay: antitumor activity in mice against colon adenocarcinoma #38
Method: as §1, §2, §3, §4

[6] = system: Human MX-1 Mammary; assay: antitumor activity in mice against Human MX-1 Mammary; conditions: i.v. days 1-6 (some changed to p.o.)
Method: as §1, §5, §6

[7] = system: Human Adeno Squamous Lung #125; assay: antitumor activity in mice against Human Adeno Squamous Lung #125; conditions: 16 hr infusion days 7, 20
[8] = system: Colon #51; assay: antitumor activity in mice against Colon #51; conditions: 3 hr infusion days 3, 7; for Tumor Free: 50 days of observation
Method: as §1, §5, §6

[9] = system: Mammary 16/C/Adr; assay: antitumor activity in mice against Mammary 16/C/Adr (adriamycin resistant); conditions: 960 mg/kg total, 3 hr infusion days 1, 4
Method: as §1, §5, §6

[10] = 79 mg/kg total, i.v. bolus days 3-4, 6-14
[11] = 124 mg/kg total, i.v. bolus days 3-4, 6-14
[12] = 51 mg/kg total, i.v. bolus days 1-4
[13] = 82 mg/kg total, i.v. bolus days 1-4
[14] = 51 mg/kg total, i.v. bolus days 6-9
[15] = 82 mg/kg total, i.v. bolus days 6-9
[16] = Table 2, i.v., total dose mg/kg by Example: 2:600, 5:960, 6:132, 7:840, 16(a):1000, 18(e):180
[17] = Table 2, i.v., total dose mg/kg by Example: 6:82, 16(a):690, 18(e):120
[18] = 155 mg/kg total, i.v. days 3-6 (some changed to p.o.)
[19] = 240 mg/kg total, i.v. days 3-6 (some changed to p.o.)
[20] = 420 mg/kg total, i.v. days 3-6 (some changed to p.o.)
[21] = 161 mg/kg total, i.v. days 1-4 (some changed to p.o.)
[22] = 242 mg/kg total, i.v. days 1-4 (some changed to p.o.)
[23] = 363 mg/kg total, i.v. days 1-4 (some changed to p.o.)
[24] = 147 mg/kg total, i.v. days 3-7 (some changed to p.o.)
[25] = 220 mg/kg total, i.v. days 3-7 (some changed to p.o.)
[26] = 330 mg/kg total, i.v. days 3-7 (some changed to p.o.)
[27] = 454 mg/kg total, 4 hr infusion days 1, 4
[28] = 720 mg/kg total, 4 hr infusion days 1, 4
[29] = 600 mg/kg total, 4 hr infusion days 6, 13
[30] = 960 mg/kg total, 4 hr infusion days 6, 13

CCN(CC)CCNc1ccc(CNS(C)(=O)=O)c2sc3ccccc3c(=O)c12 [Example 6, N-[[1-[[2-(Diethylamino)ethyl]amino]-9-oxothioxanthen4-yl]methyl]methanesulfonamide]
T/C Value ([1]; 66 mg/kg total): 28%
Wt. Loss at Nadir ([1]; 66 mg/kg total): -2.3 g/mouse
T/C Value ([1]; 96 mg/kg total): 14%
Wt. Loss at Nadir ([1]; 96 mg/kg total): -3.0 g/mouse
T/C Value [2, 10]: 0%
Wt. Loss at Nadir [2, 10]: -1.0 g/mouse
Tumor Free ([2]; 79 mg/kg total, i.v. bolus days 3-4, 6-14, 245 days of observation): 1/5
T/C Value [2, 11]: 0%
Wt. Loss at Nadir [2, 11]: -1.6 g/mouse
Tumor Free ([2]; 124 mg/kg total, i.v. bolus days 3-4, 6-14, 245 days of observation): 3/5
Weight Loss ([2]; Table 1, total doses as in E1): 1.6 g
Drug Deaths ([2]; Table 1, total doses as in E1): 0
T/C Value ([3]; 51 mg/kg total): 42%
Wt. Loss at Nadir ([3]; 51 mg/kg total): -1.2 g/mouse
Tumor Free ([3]; 51 mg/kg total): 0/5
T/C Value ([3]; 82 mg/kg total): 23%
Wt. Loss at Nadir ([3]; 82 mg/kg total): -2.0 g/mouse
Tumor Free ([3]; 82 mg/kg total): 0/5
T/C Value [4, 12]: 13%
Wt. Loss at Nadir [4, 12]: -1.2 g/mouse
Tumor Free ([4]; 51 mg/kg total, i.v. bolus days 1-4, 23 days of observation): 0/5
T/C Value [4, 13]: 6%
Wt. Loss at Nadir [4, 13]: -3.0 g/mouse
Tumor Free ([4]; 82 mg/kg total, i.v. bolus days 1-4, 23 days of observation): 0/5
T/C Value [5, 14]: 18%
Wt. Loss at Nadir [5, 14]: -1.2 g/mouse
T/C Value [5, 15]: 1%
Wt. Loss at Nadir [5, 15]: -1.7 g/mouse
Drug Deaths [5, 16]: 3/7
Drug Deaths [5, 17]: 1/7
Weight Loss [5, 17]: 1.7 g
Weight Loss ([5]; mouse, in vivo, iv): 5.0 g

CCN(CC)CCNc1ccc(CNC(=O)OC)c2sc3ccc(OC)cc3c(=O)c12 [Example 36]
Drug Deaths [2, 18]: 0
T/C Value [2, 18]: 0%
Wt. Loss at Nadir [2, 18]: -0.4 g/mouse
Drug Deaths [2, 19]: 0
T/C Value [2, 19]: 0%
Wt. Loss at Nadir [2, 19]: -0.4 g/mouse
Drug Deaths [2, 20]: 3/5
T/C Value [2, 20]: 0%
Wt. Loss at Nadir [2, 20]: -5.6 g/mouse
Weight Loss ([2]; Table 1, total doses as in E1): 0.4 g
Drug Deaths ([2]; Table 1, total doses as in E1): 0
Drug Deaths [4, 21]: 0
T/C Value [4, 21]: 9%
Wt. Loss at Nadir [4, 21]: -0.4 g/mouse
Drug Deaths [4, 22]: 1/5
T/C Value [4, 22]: 8%
Wt. Loss at Nadir [4, 22]: -1.2 g/mouse
Drug Deaths [4, 23]: 2/5
T/C Value [4, 23]: 2%
Wt. Loss at Nadir [4, 23]: -2.4 g/mouse
Drug Deaths ([6]; 132 mg/kg total): 0
T/C Value ([6]; 132 mg/kg total): 27%
Wt. Loss at Nadir ([6]; 132 mg/kg total): -0.8 g/mouse
Drug Deaths ([6]; 297 mg/kg total): 0
T/C Value ([6]; 297 mg/kg total): 39%
Wt. Loss at Nadir ([6]; 297 mg/kg total): -2.4 g/mouse
Drug Deaths [5, 24]: 0
T/C Value [5, 24]: 0%
Wt. Loss at Nadir [5, 24]: 0 g/mouse
Drug Deaths [5, 25]: 0
T/C Value [5, 25]: 0%
Wt. Loss at Nadir [5, 25]: -0.8 g/mouse
Drug Deaths [5, 26]: 0
T/C Value [5, 26]: 0%
Wt. Loss at Nadir [5, 26]: -3.2 g/mouse

CCN(CC)CCNc1ccc(CNC)c2sc3ccccc3c(=O)c12 [Example 5, 1-[[2-(Diethylamino)ethyl]amino]-4-[(methylamino)-methyl]thioxanthen-9-one]
T/C Value ([7]; 600 mg/kg total): 15%
Wt. Loss at Nadir ([7]; 600 mg/kg total): -0.4 g/mouse
Tumor Free ([7]; 600 mg/kg total, 33 days of observation): 0/5
Tumor Free ([7]; 600 mg/kg total, 132 days of observation): 0/5
T/C Value ([7]; 960 mg/kg total): 16%
Wt. Loss at Nadir ([7]; 960 mg/kg total): -0.4 g/mouse
Tumor Free ([7]; 960 mg/kg total, 33 days of observation): 1/4
Tumor Free ([7]; 960 mg/kg total, 132 days of observation): 0/4
T/C Value ([8]; 454 mg/kg total): 12%
Wt. Loss at Nadir ([8]; 454 mg/kg total): -2.8 g/mouse
Tumor Free ([8]; 454 mg/kg total): 0/7
T/C Value ([8]; 720 mg/kg total): 8%
Wt. Loss at Nadir ([8]; 720 mg/kg total): -1.1 g/mouse
Tumor Free ([8]; 720 mg/kg total): 0/5
T/C [2]: 0%
T/C Value ([2]; 222 mg/kg total, 3 hr infusion): 0%
Wt. Loss at Nadir ([2]; 222 mg/kg total, 3 hr infusion): -1.6 g/mouse
Tumor Free ([2]; 222 mg/kg total, 3 hr infusion, 108 days of observation): 1/4
Weight Loss ([2]; Table 1, total doses as in E1): 1.6 g
Drug Deaths ([2]; Table 1, total doses as in E1): 0
T/C Value [9]: 23%
Wt. Loss at Nadir [9]: -2.8 g/mouse
T/C Value [4, 27]: 16%
Wt. Loss at Nadir [4, 27]: -1.2 g/mouse
Tumor Free ([4]; 454 mg/kg total, 4 hr infusion days 1, 4, 13 days of observation): 0/7
T/C Value [4, 28]: 18%
Wt. Loss at Nadir [4, 28]: -2.0 g/mouse
Tumor Free ([4]; 720 mg/kg total, 4 hr infusion days 1, 4, 13 days of observation): 0/7
activity against colon adenocarcinoma #38 ([5]; 300 mg/kg p.o.): active
T/C Value ([5]; 477 mg/kg total, 3-15 bolus): 9%
Wt. Loss at Nadir ([5]; 477 mg/kg total, 3-15 bolus): -2.8 g/mouse
Tumor Free ([5]; 477 mg/kg total, 3-15 bolus, 100 days of observation): 0/5
T/C Value [5, 29]: 26%
Wt. Loss at Nadir [5, 29]: -2.0 g/mouse
Tumor Free ([5]; 600 mg/kg total, 4 hr infusion days 6, 13, 20 days of observation): 0/7
Tumor Free ([5]; 600 mg/kg total, 4 hr infusion days 6, 13, 100 days of observation): 0/7
T/C Value ([5]; 732 mg/kg total, 3-15 bolus): 0%
Wt. Loss at Nadir ([5]; 732 mg/kg total, 3-15 bolus): -2.0 g/mouse
Tumor Free ([5]; 732 mg/kg total, 3-15 bolus, 100 days of observation): 1/5
T/C Value [5, 30]: 11%
Wt. Loss at Nadir [5, 30]: -2.9 g/mouse
Tumor Free ([5]; 960 mg/kg total, 4 hr infusion days 6, 13, 20 days of observation): 2/7
Tumor Free ([5]; 960 mg/kg total, 4 hr infusion days 6, 13, 100 days of observation): 1/7
Drug Deaths [5, 16]: 0
T/C ([5]; iv): 11%
Weight Loss ([5]; mouse, in vivo, iv): 2.9 g
